Measurements from patent US11839613B2, “Pyrimidine derivatives as PGE2 receptor modulators” (IDORSIA PHARMACEUTICALS LTD, priority 2017, dated 2023).
pIC50: −log10 of the molar value.

How the values were obtained:
PTGER4 (EP4) = PTGER4 (EP4) (Homo sapiens (Human), UniProt P35408); test: cell-based
Source text: The system is based on the Enzyme Fragment Complementation Technology. Two complementing fragments of the b-galactosidase enzyme are expressed within stably transfected cells. The larger portion of b-gal, termed EA for Enzyme Acceptor, is fused to the C-terminus of b-arrestin 2. The smaller fragment, termed ProLink™ tag, is fused to PTGER2 (EP2) or PTRGER4 (EP4) at the C-terminus. Upon activation, b-arrestin is recruited which forces the interaction of ProLink and EA, allowing complementation of the two fragments of b-gal and the formation of a functional enzyme which is capable of hydrolysing the substrate and generating a chemiluminescent signal.
Plate is incubated at 37° C., 5% CO2 for 24 hours.
Stock solutions of test compounds are made at a concentration of 10 mM in DMSO, and serially diluted in DMSO to concentrations required for inhibition dose response curves (tested concentration range 10 μM-2 nM or 1 μM-0.2 nM).
Five microliters of diluted compounds are transferred into the assay plate. Plate is pre-incubated 15 minutes at 37° C. Then five microliters of PGE2 (final conc. 20 nM) are transferred into the assay plate. Plate is incubated 120 minutes at 37° C.
Twelve I of reagent are transferred to the assay plate and incubate for 1 hour at RT in the dark. Luminescence counts are read on a BMG Fluostar Optima reader according to manufacturer's instructions.
For each compound concentration calculate of the percentage of activity compared to DMSO control value as average ±STDEV. (each concentration is measured in duplicate)

PTGER2 (EP2) = PTGER2 (EP2) (Homo sapiens (Human), UniProt P43116); test: hEP2 b-arrestin assay (PathHunter HEK 293 PTGER2 b-arrestin cells); type: cell-based; conditions: antagonistic activity, beta-arrestin assay; read-out: hEP2 b-arr IC50
Procedure: Plate is pre-incubated 15 minutes at 37° C. Then five microliters of PGE2 (final conc. 5 μM) are transferred into the assay plate. Plate is incubated 120 minutes at 37° C.
(each concentration is measured in duplicate)

Sequence of PTGER2 (EP2) (P43116 whole entry): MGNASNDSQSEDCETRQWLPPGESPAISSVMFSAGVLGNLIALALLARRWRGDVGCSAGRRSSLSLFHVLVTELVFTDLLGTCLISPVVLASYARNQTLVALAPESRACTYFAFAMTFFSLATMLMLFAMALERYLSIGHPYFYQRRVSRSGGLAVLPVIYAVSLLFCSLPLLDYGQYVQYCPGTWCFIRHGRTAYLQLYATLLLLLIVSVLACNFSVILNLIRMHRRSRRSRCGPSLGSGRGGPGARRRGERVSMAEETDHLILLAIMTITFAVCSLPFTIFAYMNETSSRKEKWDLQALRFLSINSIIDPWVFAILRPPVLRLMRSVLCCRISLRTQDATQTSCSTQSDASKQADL
Sequence of PTGER4 (EP4) (P35408 whole entry): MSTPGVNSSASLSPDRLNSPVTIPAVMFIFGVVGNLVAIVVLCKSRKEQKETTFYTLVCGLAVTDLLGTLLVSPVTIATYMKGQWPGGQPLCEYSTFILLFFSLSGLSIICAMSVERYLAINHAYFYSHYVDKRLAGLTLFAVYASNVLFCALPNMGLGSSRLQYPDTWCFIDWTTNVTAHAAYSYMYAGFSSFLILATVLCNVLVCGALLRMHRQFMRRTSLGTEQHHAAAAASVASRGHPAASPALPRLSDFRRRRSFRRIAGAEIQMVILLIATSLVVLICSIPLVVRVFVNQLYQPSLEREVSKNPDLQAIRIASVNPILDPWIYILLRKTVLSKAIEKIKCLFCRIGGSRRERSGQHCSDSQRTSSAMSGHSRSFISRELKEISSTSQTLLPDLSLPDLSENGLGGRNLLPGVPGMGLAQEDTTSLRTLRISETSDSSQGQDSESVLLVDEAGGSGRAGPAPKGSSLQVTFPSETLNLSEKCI

Structure (SMILES)	pIC50 (PTGER4 (EP4))	pIC50 (PTGER2 (EP2))
Cc1c(CCNc2cc(-c3ccc(C(=O)O)c(OC4CCC4)c3)ncn2)ccc2ccsc12 [Example 471, 2-Cyclobutoxy-4-{6-[2-(7-methyl-benzo[b]thiophen-6-yl)-ethylamino]-pyrimidin-4-yl}-benzoic acid]	6.52	6.68
CCc1cc(-c2cc(NCCc3c(OC)cc4c(c3C)OCCO4)ncn2)ccc1CC(=O)O [Example 444, (2-Ethyl-4-{6-[2-(7-methoxy-5-methyl-2,3-dihydro-benzo[1,4]dioxin-6-yl)-ethylamino]-pyrimidin-4-yl}-phenyl)-acetic acid]	7.37	7.82
CCOc1cc(-c2cc(NCCc3cc(F)c4sccc4c3)ncn2)sc1C(=O)O [Example 362, 3-Ethoxy-5-{6-[2-(7-fluoro-benzo[b]thiophen-5-yl)-ethylamino]-pyrimidin-4-yl}-thiophene-2-carboxylic acid]	8.22	7.70
CCOc1cc(-c2cc(NCCc3cc(F)c4sccc4c3)ncn2)ccc1CC(=O)O [Example 363, (2-Ethoxy-4-{6-[2-(7-fluoro-benzo[b]thiophen-5-yl)-ethylamino]-pyrimidin-4-yl}-phenyl)-acetic acid]	7.23	6.32
COc1cc2c(c(C)c1CCNc1cc(-c3ccc(C(=O)O)c(OC4CCC4)c3)ncn1)OCCO2 [Example 396, 2-Cyclobutoxy-4-{6-[2-(7-methoxy-5-methyl-2,3-dihydro-benzo[1,4]dioxin-6-yl)-ethylamino]-pyrimidin-4-yl}-benzoic acid]	7.36	8.70
CCOc1cc(-c2cc(NCCc3c(OC)cc4ccccc4c3C)ncn2)ccc1OCCC(=O)O [Example 423, 3-(2-Ethoxy-4-{6-[2-(3-methoxy-1-methyl-naphthalen-2-yl)-ethylamino]-pyrimidin-4-yl}-phenoxy)-propionic acid]	8.00	7.31

Further lines, results first:

pIC50 (PTGER4 (EP4))	pIC50 (PTGER2 (EP2))	Structure (SMILES)
6.66	7.17	CCOc1cc2c(cc1CCNc1cc(-c3ccc(CC(=O)O)c(CC)c3)ncn1)OCCO2 [Example 512, (4-{6-[2-(7-Ethoxy-2,3-dihydro-benzo[1,4]dioxin-6-yl)-ethylamino]-pyrimidin-4-yl}-2-ethyl-phenyl)-acetic acid]
7.42	7.06	CCc1cc(-c2cc(NCCc3c(OC)cc4ccccc4c3C)ncn2)ccc1CC(=O)O [Example 445, (2-Ethyl-4-{6-[2-(3-methoxy-1-methyl-naphthalen-2-yl)-ethylamino]-pyrimidin-4-yl}-phenyl)-acetic acid]
6.71	7.35	CCOc1cc2c(cc1CCNc1cc(-c3ccc(CC(=O)O)c(OC(F)F)c3)ncn1)OCCO2 [Example 510, (2-Difluoromethoxy-4-{6-[2-(7-ethoxy-2,3-dihydro-benzo[1,4]dioxin-6-yl)-ethylamino]-pyrimidin-4-yl}-phenyl)-acetic acid]
6.95	6.58	CCc1cc(-c2cc(NCCc3ccc4sccc4c3F)ncn2)ccc1CC(=O)O [Example 514, (2-Ethyl-4-{6-[2-(4-fluoro-benzo[b]thiophen-5-yl)-ethylamino]-pyrimidin-4-yl}-phenyl)-acetic acid]
6.04	6.57	O=C(O)C1Cc2cc(-c3cc(NCCc4ccc5sccc5c4)ncn3)ccc2O1 (racemic) [Example 474, rac-5-[6-(2-Benzo[b]thiophen-5-yl-ethylamino)-pyrimidin-4-yl]-2,3-dihydro-benzofuran-2-carboxylic acid]
6.94	7.59	CCCc1cc(-c2cc(NCCc3cc4ccsc4c(F)c3OC)ncn2)ccc1C(=O)O [Example 483, 4-{6-[2-(7-Fluoro-6-methoxy-benzo[b]thiophen-5-yl)-ethylamino]-pyrimidin-4-yl}-2-propyl-benzoic acid]
7.11	7.51	Cc1c(CCNc2cc(-c3ccc(C(=O)O)c(OC4CC4)c3)ncn2)ccc2ccccc12 [Example 521, 2-Cyclopropoxy-4-{6-[2-(1-methyl-naphthalen-2-yl)-ethylamino]-pyrimidin-4-yl}-benzoic acid]
